Source: PMC9586930, “Molecular insights into the distinct signaling duration for the peptide-induced PTH1R activation” (Nature Communications, 2022)
Changes are numbered by the printed parent chain.

Key:
PTH1R Y191A mutant = molecular target: T1, PTH1R Y191A mutant (Homo sapiens, UniProt Q03431, Y191A); assay: cAMP accumulation assay (GloSensor), PTH1R Y191A; type: cell-based; conditions: for ΔpEC50±SEM: relative to WT, n = 3 in triplicate; for ΔpEC50±SEM / Span±SEM: mean ± SEM; for Span±SEM: window between maximal response (Emax) and vehicle, n = 3
T1 construct: a flag-tag was fused to the N terminal of full-length PTH1R (WT or mutant); expressed in transfected cells; host or cells: HEK293T
T1 sequence (Q03431 27-593 Y191A): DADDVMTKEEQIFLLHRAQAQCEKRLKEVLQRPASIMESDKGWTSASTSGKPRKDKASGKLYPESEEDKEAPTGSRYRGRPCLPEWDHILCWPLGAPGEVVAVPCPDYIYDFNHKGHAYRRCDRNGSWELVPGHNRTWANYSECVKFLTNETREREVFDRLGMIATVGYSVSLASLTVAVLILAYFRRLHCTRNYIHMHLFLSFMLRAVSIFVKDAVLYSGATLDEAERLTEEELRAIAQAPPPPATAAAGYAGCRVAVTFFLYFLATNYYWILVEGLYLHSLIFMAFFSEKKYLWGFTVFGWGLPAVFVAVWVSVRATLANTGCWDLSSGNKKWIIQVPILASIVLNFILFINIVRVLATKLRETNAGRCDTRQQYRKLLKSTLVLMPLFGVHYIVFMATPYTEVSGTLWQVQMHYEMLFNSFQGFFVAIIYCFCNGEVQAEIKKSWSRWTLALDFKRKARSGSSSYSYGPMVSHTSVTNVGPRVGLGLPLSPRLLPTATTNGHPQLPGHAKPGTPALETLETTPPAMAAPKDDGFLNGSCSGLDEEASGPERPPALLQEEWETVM
Procedure: Human embryonic kidney 293 T (HEK293T, ATCC: CRL-1573) cells were transfected with a plasmid mixture consisting of pcDNA3.1-flag-PTH1R (WT or mutants) and the cAMP biosensor GloSensor-22F (Promega) at a ratio of 2:1 (see Supplementary Table 7 for a list of primers used in this study). After 24 h, transfected cells were plated onto a 384-well plate, which was treated with cell adherent reagent (Applygen) in advance. After another 12 h, cells were treated with Hank’s balanced salt solution for starvation and then incubated in CO2-independent media containing 4% GloSensor cAMP Reagent (Promega) at a volume of 5 μl per well and incubated for 20 min at RT before measurements for baseline luminescence (Spark Multimode microplate reader, TECAN). Next, test ligands were added at different concentrations from 10^−6 to 10^−13 M before second measurement. Finally, data were normalized to 100% of the maximal PTH (1-34) response for WT PTH1R using a sigmoidal dose-response in GraphPad Prism.
Statistical analyses were performed on at least three individual datasets and analysed using GraphPad Prism software. Bars represent differences in the calculated agonist potency (pEC50) and maximum agonist response (Emax) for each mutant relative to the WT receptor. Data are mean± s.e.m. from at least three independent experiments, performed in triplicates. ns, not significant, ^nsP > 0.01; ^*P < 0.01; ^**P < 0.001; ^***P < 0.0001 (one-way analysis of variance (ANOVA) followed by Dunnett’s test, compared with the response of the WT). For dose-response experiments, data were normalized and analyzed using nonlinear curve fitting for the log (agonist) versus response (three parameters) curves.

PTH1R (WT) = molecular target: T2, PTH1R (WT) (Homo sapiens, UniProt Q03431); assay: Wash out assay, duration of cAMP signaling; type: cell-based; conditions: ligand 10^-6 M, 10 min ligand-on phase, 70 min wash-out phase, HEK293T, GloSensor
T2 construct: a flag-tag was fused to the N terminal of full-length PTH1R (WT or mutant); expressed in transfected cells; host or cells: HEK293T
T2 sequence (Q03431 27-593): T1 sequence (Q03431 27-593 Y191A) with A165Y
Procedure: Human embryonic kidney 293 T (HEK293T) cells were transfected with a plasmid mixture consisting of pcDNA3.1-flag-PTH1R (WT) and the cAMP biosensor GloSensor-22F (Promega) at a ratio of 2:1. After 24 h, transfected cells were plated onto a 96-well plate, which was treated with cell adherent reagent (Applygen) in advance. After another 12 h, cells were treated with Hank’s balanced salt solution for starvation and then incubated in CO2-independent media containing 4% GloSensor cAMP Reagent (Promega) at a volume of 40 μl per well and incubated for 20 min at RT before measurements for baseline luminescence (Spark Multimode microplate reader, TECAN). Next, test ligands (10 μl) were added at 10^−6 M that approximated the respective Emax (efficacy) value obtained for that “ligand- on” phase were similar for the different ligands. Then the development of cAMP-dependent luminescence was measured for 10 min (“ligand-on” phase); the plates were then removed from the plate reader, the cells were rinsed twice to remove unbound ligand, treated with fresh media containing luciferin, and luminescence was again recorded for an additional 70 min (“wash-out” phase)[18]. Finally, data were analyzed using GraphPad Prism.

Substance: H-AVAEIQLMHQRAKWIQDARRRAFLHKLIAEIHTAEI-OH [LA-PTH, long-acting PTH analog, modified PTH/PTHrP hybrid]
- span (from the WT) (PTH1R Y191A mutant; PTH1R Y1911.43A, replicate 1): 133.3
- ΔpEC50 (from the WT) (PTH1R Y191A mutant; PTH1R Y1911.43A, replicate 1): -0.163
- span (from the WT) (PTH1R Y191A mutant; PTH1R Y1911.43A, replicate 2): 153.3
- ΔpEC50 (from the WT) (PTH1R Y191A mutant; PTH1R Y1911.43A, replicate 2): -0.013
- span (from the WT) (PTH1R Y191A mutant; PTH1R Y1911.43A, replicate 3): 159.2
- ΔpEC50 (from the WT) (PTH1R Y191A mutant; PTH1R Y1911.43A, replicate 3): -0.095
- ΔpEC50±SEM (PTH1R Y191A mutant): -0.09±0.04
- ΔpEC50 (from the WT) (PTH1R Y191A mutant; replicate 1): -0.163
- ΔpEC50 (from the WT) (PTH1R Y191A mutant; replicate 2): -0.013
- ΔpEC50 (from the WT) (PTH1R Y191A mutant; replicate 3): -0.095
- Span±SEM (PTH1R Y191A mutant): 148.60±7.84
- duration of cAMP signaling after wash-out (PTH1R (WT)): stronger activity of sustained signaling when compared with the PTH

Substance: H-AVSEHQLLHDKGKSIQDLRRRELLEKLL-{Aib}-KLHTA-NH2 [ABL, Abaloparatide, an analog of PTHrP, short-acting PTH1R agonist]
- span (from the WT) (PTH1R Y191A mutant; PTH1R Y1911.43A, replicate 1): 197.4
- ΔpEC50 (from the WT) (PTH1R Y191A mutant; PTH1R Y1911.43A, replicate 1): -2.59
- span (from the WT) (PTH1R Y191A mutant; PTH1R Y1911.43A, replicate 2): 251.3
- ΔpEC50 (from the WT) (PTH1R Y191A mutant; PTH1R Y1911.43A, replicate 2): -2.509
- span (from the WT) (PTH1R Y191A mutant; PTH1R Y1911.43A, replicate 3): 242
- ΔpEC50 (from the WT) (PTH1R Y191A mutant; PTH1R Y1911.43A, replicate 3): -2.365
- ΔpEC50±SEM (PTH1R Y191A mutant): -2.49±0.07
- ΔpEC50 (from the WT) (PTH1R Y191A mutant; replicate 1): -2.59
- ΔpEC50 (from the WT) (PTH1R Y191A mutant; replicate 2): -2.509
- ΔpEC50 (from the WT) (PTH1R Y191A mutant; replicate 3): -2.365
- Span±SEM (PTH1R Y191A mutant): 230.23±16.63
- duration of cAMP signaling after wash-out (PTH1R (WT)): obvious transient cAMP signaling

Substance: H-SVSEIQLMHNLGKHLNSMERVEWLRKKLQDVHNF-OH [PTH, Teriparatide, human PTH 1-34, long-acting peptide agonist of PTH1R]
- span (from the WT) (PTH1R Y191A mutant; PTH1R Y1911.43A, replicate 1): 132.4
- ΔpEC50 (from the WT) (PTH1R Y191A mutant; PTH1R Y1911.43A, replicate 1): -0.995
- span (from the WT) (PTH1R Y191A mutant; PTH1R Y1911.43A, replicate 2): 179.6
- ΔpEC50 (from the WT) (PTH1R Y191A mutant; PTH1R Y1911.43A, replicate 2): -0.805
- span (from the WT) (PTH1R Y191A mutant; PTH1R Y1911.43A, replicate 3): 268.7
- ΔpEC50 (from the WT) (PTH1R Y191A mutant; PTH1R Y1911.43A, replicate 3): -0.706
- ΔpEC50±SEM (PTH1R Y191A mutant): -0.84±0.08
- ΔpEC50 (from the WT) (PTH1R Y191A mutant; replicate 1): -0.995
- ΔpEC50 (from the WT) (PTH1R Y191A mutant; replicate 2): -0.805
- ΔpEC50 (from the WT) (PTH1R Y191A mutant; replicate 3): -0.706
- Span±SEM (PTH1R Y191A mutant): 164.77±14.05
- duration of cAMP signaling after wash-out (PTH1R (WT)): potent prolonged cAMP signaling
